The results in this text go back to patent US10160729B2, “Hsp70 modulators and methods for making and using the same” (Memorial Sloan Kettering Cancer Center, priority 2014, dated 2018).

pEC50: −log10 of the molar value. A value given as a limit tells only on which side of the number the result lay.

The test concerns MOLM-13 cells. Briefly: Caspase cleavage assay (Caspase3, 7 activation). To be noted: Homo sapiens, 16 h treatment, caspase substrate Z-DEVD-R110, read-out: c* Concentration at which 50% of the maximum signal was achieved (caspase activation). It is filed as cell-based. The protocol:
Caspase3, 7 Activation. MOLM-13 cells (30,000 cells/well) were plated in black 96-well plates (Corning Cat. #3603) in 40 μL of RPMI media, and left in an incubator (37° C., 5% CO2) for up to 24 h. Cells were treated for 16 h with compounds or DMSO (control) at desired concentrations in 50 μL of media. Drugs were added in triplicate wells. Following exposure of cells to Hsp70 inhibitors, 50 μL of buffer containing 10 mM HEPES (pH 7.5), 2 mM EDTA, 0.1% CHAPS and the caspase substrate Z-DEVD-R110 at 25 μM was added to each well. Plates were incubated until the signal stabilized and then the fluorescence signal of each well was measured in an Analyst GT microplate reader. The percentage increase in apoptotic cells was calculated by comparison of the fluorescence reading obtained from treated versus control cells.
In the case of `CN1CCN(c2ncc(Sc3ccc(C(N)=O)c(C(F)(F)F)c3)c(OCc3ccccc3)n2)CC1` [compound 70, 4-((4-(Benzyloxy)-2-(4-methylpiperazin-1-yl)pyrimidin-5-yl)thio)-2-(trifluoromethyl)benzamide], the pEC50 is more than 6.70.

With `Cc1cc(C(N)=O)ccc1Sc1cnc(N2CCN(C)CC2)nc1OCc1ccccc1` [compound 73, 4-((4-(Benzyloxy)-2-(4-methylpiperazin-1-yl)pyrimidin-5-yl)thio)-3-methylbenzamide], the pEC50 is 5.92 to 6.00.

As for `Cc1cc(Sc2cnc(N3CCN(C)CC3)nc2OCc2ccccc2)ccc1C(N)=O` [compound 74, 4-((4-(Benzyloxy)-2-(4-methylpiperazin-1-yl)pyrimidin-5-yl)thio)-2-methylbenzamide], the pEC50 is 6.00 to 6.40.

For the compound `CN1CCN(c2ncc(Sc3ccc(C(N)=O)c(Br)c3)c(OCc3ccccc3)n2)CC1` [compound 77, 4-((4-(Benzyloxy)-2-(4-methylpiperazin-1-yl)pyrimidin-5-yl)thio)-2-bromobenzamide], the pEC50 was 6.40 to 6.70.

In the case of `CN1CCN(c2ncc(Sc3ccc(C(N)=O)c(Cl)c3)c(OCc3ccccc3)n2)CC1` [compound 78, 4-((4-(Benzyloxy)-2-(4-methylpiperazin-1-yl)pyrimidin-5-yl)thio)-2-chlorobenzamide], the pEC50 was 6.00 to 6.40.

`CN1CCN(c2ncc(Sc3ccc(C(N)=O)c(F)c3)c(OCc3ccccc3)n2)CC1` [compound 79, 4-((4-(Benzyloxy)-2-(4-methylpiperazin-1-yl)pyrimidin-5-yl)thio)-2-fluorobenzamide]: the pEC50 was 6.40 to 6.70.

For `CN1CCN(c2ncc(Sc3ccc(C(N)=O)c(I)c3)c(OCc3ccccc3)n2)CC1` [compound 80, 4-((4-(Benzyloxy)-2-(4-methylpiperazin-1-yl)pyrimidin-5-yl)thio)-2-iodobenzamide], the pEC50 is 6.00 to 6.40.

As to `CN1CCN(c2ncc(Sc3ccc(C(=O)O)cc3)c(OCc3ccccc3)n2)CC1` [compound 81, 4-((4-(Benzyloxy)-2-(4-methylpiperazin-1-yl)pyrimidin-5-yl)thio)benzoic acid], the pEC50 was 5.92 to 6.00.

As for `CNC(=O)c1ccc(Sc2cnc(N3CCN(C)CC3)nc2OCc2ccccc2)cc1` [compound 83, 4-((4-(Benzyloxy)-2-(4-methylpiperazin-1-yl)pyrimidin-5-yl)thio)-N-methylbenzamide], the pEC50 was 6.00 to 6.40.

In the case of `CN1CCN(c2ncc(Sc3ccc(C(=O)N(C)C)cc3)c(OCc3ccccc3)n2)CC1` [compound 84, 4-((4-(Benzyloxy)-2-(4-methylpiperazin-1-yl)pyrimidin-5-yl)thio)-N,N-dimethylbenzamide], the pEC50 was 6.40 to 6.70.

`CN1CCN(c2ncc(Sc3ccc(C(=O)NCN4CCCC4)cc3)c(OCc3ccccc3)n2)CC1` [compound 92, 4-((4-(Benzyloxy)-2-(4-methylpiperazin-1-yl)pyrimidin-5-yl)thio)-N-(pyrrolidin-1-ylmethyl)benzamide]: the pEC50 was 6.00 to 6.40.

`CN1CCN(c2ncc(Sc3ccc(C(=O)NCN4CCCCC4)cc3)c(OCc3ccccc3)n2)CC1` [compound 93, 4-((4-(Benzyloxy)-2-(4-methylpiperazin-1-yl)pyrimidin-5-yl)thio)-N-(piperidin-1-ylmethyl)benzamide]: the pEC50 was 5.92 to 6.00.

For the compound `COc1ccc(COc2nc(N3CCN(C)CC3)ncc2Sc2ccc(C(N)=O)cc2)cc1` [compound 96, 4-((4-((4-Methoxybenzyl)oxy)-2-(4-methylpiperazin-1-yl)pyrimidin-5-yl)thio)benzamide], the pEC50 was 6.00 to 6.40.

`CN1CCN(c2ncc(Sc3ccc(C(N)=O)cc3)c(OCc3cccc(N=[N+]=[N-])c3)n2)CC1` [compound 101, 4-((4-((3-Azidobenzyl)oxy)-2-(4-methylpiperazin-1-yl)pyrimidin-5-yl)thio)benzamide]: the pEC50 is more than 6.70.

For `CN1CCN(c2ncc(Sc3ccc(C(N)=O)cc3)c(NCc3ccccc3)n2)CC1` [compound 102, 4-((4-(Benzylamino)-2-(4-methylpiperazin-1-yl)pyrimidin-5-yl)thio)benzamide], the pEC50 was 6.40 to 6.70.

For `COc1cccc(COc2nc(N3CCN(C)CC3)ncc2Sc2ccc(C(N)=O)c(Cl)c2)c1` [compound 108, 2-Chloro-4-((4-((3-methoxybenzyl)oxy)-2-(4-methylpiperazin-1-yl)pyrimidin-5-yl)thio)benzamide], the pEC50 was more than 6.70.

Consider `COc1ccc(F)c(COc2nc(N3CCN(C)CC3)ncc2Sc2ccc(C(N)=O)c(Cl)c2)c1` [compound 109], for which the pEC50 is more than 6.70.

Consider `COc1cc(F)cc(COc2nc(N3CCN(C)CC3)ncc2Sc2ccc(C(N)=O)c(Cl)c2)c1` [compound 110, 2-Chloro-4-((4-((3-fluoro-5-methoxybenzyl)oxy)-2-(4-methylpiperazin-1-yl)pyrimidin-5-yl)thio)benzamide], for which the pEC50 was 6.40 to 6.70.

Regarding `COc1cc(COc2nc(N3CCN(C)CC3)ncc2Sc2ccc(C(N)=O)c(Cl)c2)ccc1F` [compound 111, 2-Chloro-4-((4-((4-fluoro-3-methoxybenzyl)oxy)-2-(4-methylpiperazin-1-yl)pyrimidin-5-yl)thio)benzamide], the pEC50 is more than 6.70.

Regarding `COc1c(F)ccc(COc2nc(N3CCN(C)CC3)ncc2Sc2ccc(C(N)=O)c(Cl)c2)c1F` [compound 112, 2-Chloro-4-((4-((2,4-difluoro-3-methoxybenzyl)oxy)-2-(4-methylpiperazin-1-yl)pyrimidin-5-yl)thio)benzamide], the pEC50 was more than 6.70.

For the compound `CN1CCN(c2ncc(Sc3ccc(C(N)=O)c(Cl)c3)c(OCc3ccc(F)c(Cl)c3)n2)CC1` [compound 113, 2-Chloro-4-((4-((3-chloro-4-fluorobenzyl)oxy)-2-(4-methylpiperazin-1-yl)pyrimidin-5-yl)thio)benzamide], the pEC50 is more than 6.70.

Consider `CN1CCN(c2ncc(Sc3ccc(C(N)=O)c(Cl)c3)c(OCc3ccc(F)c(Br)c3)n2)CC1` [compound 114, 4-((4-((3-Bromo-4-fluorobenzyl)oxy)-2-(4-methylpiperazin-1-yl)pyrimidin-5-yl)thio)-2-chlorobenzamide], for which the pEC50 is more than 6.70.

As for `CN1CCN(c2ncc(Sc3ccc(C(N)=O)c(Cl)c3)c(OCc3ccc(F)c(C(F)(F)F)c3)n2)CC1` [compound 115, 2-Chloro-4-((4-((4-fluoro-3-(trifluoromethyl)benzyl)oxy)-2-(4-methylpiperazin-1-yl)pyrimidin-5-yl)thio)benzamide], the pEC50 was 6.40 to 6.70.

For `CN1CCN(c2ncc(Sc3ccc(C(N)=O)c(Cl)c3)c(OCc3cccc(N(C)C)c3)n2)CC1` [compound 116, 2-Chloro-4-((4-((3-(dimethylamino)benzyl)oxy)-2-(4-methylpiperazin-1-yl)pyrimidin-5-yl)thio)benzamide], the pEC50 was more than 6.70.

As to `CN1CCN(c2ncc(Sc3ccc(C(N)=O)c(Cl)c3)c(OCc3cccc(N)c3)n2)CC1` [compound 117, 4-((4-((3-Aminobenzyl)oxy)-2-(4-methylpiperazin-1-yl)pyrimidin-5-yl)thio)-2-chlorobenzamide], the pEC50 was 6.40 to 6.70.

Regarding `CN1CCN(c2ncc(Sc3ccc(C(N)=O)c(Cl)c3)c(OCc3ccc(F)c(N)c3)n2)CC1` [compound 118, 4-((4-((3-Amino-4-fluorobenzyl)oxy)-2-(4-methylpiperazin-1-yl)pyrimidin-5-yl)thio)-2-chlorobenzamide], the pEC50 is 6.00 to 6.40.
